Laboratory results as given in PubChem BioAssay AID1963966 (Molecular Pharmacology Branch, DTP, NCI, 2024).

Test system: 935938-334-R-J1-PDC spheroids with HUVEC/MSC, viability
Assay: Anticancer human tumor 935938-334-R-J1-PDC patient-derived small intestine adenocarcinoma cell line growth inhibition [PI3K]
Details: for IC50: curve of first compound; for viability, T/C: stronger effect = lower value
Summary of the method: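 Stroma-containing spheroids: tumor line, pooled-donor HUVEC, hMSC. Treatments: targeted agents with PI3K inhibitors. Dosing: clinically relevant, half-log spacing, 10 microM ceiling without known Cmax. Read-out: cell viability.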

[1] = second compound 0.00316 µM, first compound 0.0316 µM
[2] = second compound 0.00316 µM, first compound 0.1 µM
[3] = second compound 0.01 µM, first compound 0.0316 µM
[4] = second compound 0.01 µM, first compound 0.1 µM
[5] = second compound 0.0316 µM, first compound 0.0316 µM
[6] = second compound 0.0316 µM, first compound 0.1 µM
[7] = second compound 0.1 µM, first compound 0.0316 µM
[8] = second compound 0.1 µM, first compound 0.1 µM
[9] = second compound 0.316 µM, first compound 0.0316 µM
[10] = second compound 0.316 µM, first compound 0.1 µM
[11] = second compound 1 µM, first compound 0.0316 µM
[12] = second compound 1 µM, first compound 0.1 µM
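Note: compound exposure lasted seven days before viability was read.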
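Throughout, for viability, T/C: percent of vehicle DMSO treated spheroid viability so 100% = untreated.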

CC(C)n1nc(-c2ccc3oc(N)nc3c2)c2c(N)ncnc21 + COc1c(OCCCN2CCOCC2)ccc2c3n(c(=NC(=O)c4cnc(N)nc4)nc12)CCN3
IC50 (second compound 0.00316 µM): > 100 nM | IC50 (second compound 0.01 µM): 81.8 nM | IC50 (second compound 0.0316 µM): 26.6 nM | IC50 (second compound 0.1 µM): < 0.316 nM | IC50 (second compound 0.316 µM): < 0.316 nM | IC50 (second compound 1 µM): < 0.316 nM | viability, T/C (second compound 0.00316 µM, first compound 0.000316 µM): 86.9% | viability, T/C (second compound 0.00316 µM, first compound 0.001 µM): 110% | viability, T/C (second compound 0.00316 µM, first compound 0.00316 µM): 106% | viability, T/C (second compound 0.00316 µM, first compound 0.01 µM): 99.9% | viability, T/C [1]: 85.3% | viability, T/C [2]: 54.8% | viability, T/C (second compound 0.01 µM, first compound 0.000316 µM): 94.5% | viability, T/C (second compound 0.01 µM, first compound 0.001 µM): 83.2% | viability, T/C (second compound 0.01 µM, first compound 0.00316 µM): 92.6% | viability, T/C (second compound 0.01 µM, first compound 0.01 µM): 89.5% | viability, T/C [3]: 79.6% | viability, T/C [4]: 43.4% | viability, T/C (second compound 0.0316 µM, first compound 0.000316 µM): 83.9% | viability, T/C (second compound 0.0316 µM, first compound 0.001 µM): 107% | viability, T/C (second compound 0.0316 µM, first compound 0.00316 µM): 92.7% | viability, T/C (second compound 0.0316 µM, first compound 0.01 µM): 68% | viability, T/C [5]: 50.2% | viability, T/C [6]: 35.1% | viability, T/C (second compound 0.1 µM, first compound 0.000316 µM): 45.1% | viability, T/C (second compound 0.1 µM, first compound 0.001 µM): 59.4% | viability, T/C (second compound 0.1 µM, first compound 0.00316 µM): 39.2% | viability, T/C (second compound 0.1 µM, first compound 0.01 µM): 48.2% | viability, T/C [7]: 36.9% | viability, T/C [8]: 34.8% | viability, T/C (second compound 0.316 µM, first compound 0.000316 µM): 36.3% | viability, T/C (second compound 0.316 µM, first compound 0.001 µM): 38.9% | viability, T/C (second compound 0.316 µM, first compound 0.00316 µM): 34.5% | viability, T/C (second compound 0.316 µM, first compound 0.01 µM): 31.1% | viability, T/C [9]: 42.5% | viability, T/C [10]: 31.1% | viability, T/C (second compound 1 µM, first compound 0.000316 µM): 42.6% | viability, T/C (second compound 1 µM, first compound 0.001 µM): 37.2% | viability, T/C (second compound 1 µM, first compound 0.00316 µM): 37.1% | viability, T/C (second compound 1 µM, first compound 0.01 µM): 32.5% | viability, T/C [11]: 26.5% | viability, T/C [12]: 33.4%

CC1(C)CCC(CN2CCN(c3ccc(C(=O)NS(=O)(=O)c4ccc(NCC5CCOCC5)c([N+](=O)[O-])c4)c(Oc4cnc5[nH]ccc5c4)c3)CC2)=C(c2ccc(Cl)cc2)C1 + COc1c(OCCCN2CCOCC2)ccc2c3n(c(=NC(=O)c4cnc(N)nc4)nc12)CCN3
IC50 (second compound 0.00316 µM): > 10000 nM | IC50 (second compound 0.01 µM): > 10000 nM | IC50 (second compound 0.0316 µM): > 10000 nM | IC50 (second compound 0.1 µM): 10000 nM | IC50 (second compound 0.316 µM): < 31.6 nM | IC50 (second compound 1 µM): < 31.6 nM | viability, T/C [1]: 98.6% | viability, T/C [2]: 99.3% | viability, T/C (second compound 0.00316 µM, first compound 0.316 µM): 92.7% | viability, T/C (second compound 0.00316 µM, first compound 1 µM): 110% | viability, T/C (second compound 0.00316 µM, first compound 3.16 µM): 84.8% | viability, T/C (second compound 0.00316 µM, first compound 10 µM): 93.1% | viability, T/C [3]: 108% | viability, T/C [4]: 85.6% | viability, T/C (second compound 0.01 µM, first compound 0.316 µM): 83.7% | viability, T/C (second compound 0.01 µM, first compound 1 µM): 66.8% | viability, T/C (second compound 0.01 µM, first compound 3.16 µM): 82.4% | viability, T/C (second compound 0.01 µM, first compound 10 µM): 84.8% | viability, T/C [5]: 67.7% | viability, T/C [6]: 68.6% | viability, T/C (second compound 0.0316 µM, first compound 0.316 µM): 71.1% | viability, T/C (second compound 0.0316 µM, first compound 1 µM): 68.5% | viability, T/C (second compound 0.0316 µM, first compound 3.16 µM): 69.5% | viability, T/C (second compound 0.0316 µM, first compound 10 µM): 74% | viability, T/C [7]: 66.5% | viability, T/C [8]: 44.7% | viability, T/C (second compound 0.1 µM, first compound 0.316 µM): 56.8% | viability, T/C (second compound 0.1 µM, first compound 1 µM): 52.2% | viability, T/C (second compound 0.1 µM, first compound 3.16 µM): 52.5% | viability, T/C (second compound 0.1 µM, first compound 10 µM): 47.3% | viability, T/C [9]: 27.1% | viability, T/C [10]: 36.2% | viability, T/C (second compound 0.316 µM, first compound 0.316 µM): 30% | viability, T/C (second compound 0.316 µM, first compound 1 µM): 33.2% | viability, T/C (second compound 0.316 µM, first compound 3.16 µM): 33.6% | viability, T/C (second compound 0.316 µM, first compound 10 µM): 40.1% | viability, T/C [11]: 34.6% | viability, T/C [12]: 39.5% | viability, T/C (second compound 1 µM, first compound 0.316 µM): 38.9% | viability, T/C (second compound 1 µM, first compound 1 µM): 29.3% | viability, T/C (second compound 1 µM, first compound 3.16 µM): 34.9% | viability, T/C (second compound 1 µM, first compound 10 µM): 32.6%
